Assay: Thymol retention on porous titanium in open air, remaining thymol by HPLC
Assay type: physicochemical
Conditions: 360 h

In the case of `Cc1ccc(C(C)C)c(O)c1` [free thymol, thymol], the “amount of thymol remaining in the samples” value is reported as “almost no thymol left”.

From US20260232876A1, “POROUS METAL STRUCTURES INCORPORATING NANOPARTICLES” (Yissum Research Development Company of the Hebrew …, priority 2023, published 2026)
